SMILES strings stand for the structures.

The results in this text go back to patent US20150031674A1, “SERINE/THREONINE KINASE INHIBITORS” (GENENTECH, INC., priority 2013, published 2015).

Chain of human recombinant PAK1-KD protein (Q13153 270-521 limits assumed): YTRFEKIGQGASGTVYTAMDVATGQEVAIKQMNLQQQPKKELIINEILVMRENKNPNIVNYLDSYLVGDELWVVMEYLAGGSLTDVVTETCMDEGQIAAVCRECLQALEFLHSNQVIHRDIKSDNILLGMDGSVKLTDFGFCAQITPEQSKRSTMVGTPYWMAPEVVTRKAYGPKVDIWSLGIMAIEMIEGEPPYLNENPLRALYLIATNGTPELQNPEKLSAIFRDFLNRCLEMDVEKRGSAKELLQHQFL

The test concerns the target human recombinant PAK1-KD protein (Homo sapiens, UniProt Q13153). As to the kind of experiment: PAK1-KD (Kinase Domain) IC50 Zlyte Assay (FRET peptide substrate phosphorylation). The conditions noted are these: Z'-LYTE, Biological Example 1.
Text: PAK1-KD (Kinase Domain) IC50 Zlyte Assay Protocol
Activity of human recombinant PAK1-KD protein may be assessed in vitro by assay of the phosphorylation of a FRET peptide substrate. Catalytically active human recombinant PAK1-KD protein is obtained by purification from Tini cells infected with a human PAK1-KD recombinant baculovirus expression vector.
The activity/inhibition of PAK1-KD was estimated by measuring the phosphorylation of a FRET peptide substrate (Ser/Thr19) labeled with Coumarin and Fluorescein using Z′-LYTE™ assay (Invitrogen). The peptide substrate is a consensus sequence ([sequence]) based on various PAK substrates reported in the scientific literature. […] Incubations were carried out at 22° C. in black polypropylene 384-well plates (Corning Costar).
As to `Cc1cccc(-c2ccc(-c3cc4cnc(NC5COC5)nc4n(CCC4CNCCO4)c3=O)c(C)c2)n1` (single isomer, unassigned) [Example I-114, 6-(2-methyl-4-(6-methylpyridin-2-yl)phenyl)-8-(2-(morpholin-2-yl)ethyl)-2-(oxetan-3-ylamino)pyrido[2,3-d]pyrimidin-7(8H)-one], the Ki – broadly, the equilibrium dissociation constant of an inhibitor or competing ligand from its target – is 0.7 nM.

For `Cc1cncc(-c2ccc(-c3cc4cnc(NC(C)C)nc4n(CCC4CCNC4=O)c3=O)c(Cl)c2)n1` (stereo not drawn) [Example I-100, 6-[2-Chloro-4-(6-methylpyrazin-2-yl)phenyl]-2-(isopropylamino)-8-[2-(2-oxopyrrolidin-3-yl)ethyl]pyrido[2,3-d]pyrimidin-7-one], the inhibition constant (Ki) was determined as 18.5 nM.

Take `CNc1ncc2cc(-c3ccc(-c4csc(C)n4)cc3Cl)c(=O)n(C[C@H]3OC[C@H](N)CO3)c2n1` [Example I-190, 8-[(5-amino-1,3-dioxan-2-yl)methyl]-6-[2-chloro-4-(2-methylthiazol-4-yl)phenyl]-2-(methylamino)pyrido[2,3-d]pyrimidin-7-one]: the Ki amounted to 15.2 nM.

In the case of `CCNc1ncc2cc(-c3ccc(-c4cncc(C)n4)cc3Cl)c(=O)n(CCC3CNCCO3)c2n1` (single isomer, unassigned) [Example I-21], the Ki worked out at 9.8 nM.

Turning to `CNc1ncc2cc(-c3ccc(-c4cncc(C)n4)cc3Cl)c(=O)n(CC(=O)NCCO)c2n1` [Example I-85, 2-[6-[2-Chloro-4-(6-methylpyrazin-2-yl)phenyl]-2-(methylamino)-7-oxo-pyrido[2,3-d]pyrimidin-8-yl]-N-(2-hydroxyethyl)acetamide], the Ki amounted to 92.9 nM.

In the case of `CNc1ncc2cc(-c3ccc(-c4cccc(C)n4)cc3Cl)c(=O)n(CC3CNCCS3(=O)=O)c2n1` (single isomer, unassigned) [I-197 Isomer A, 6-[2-chloro-4-(6-methyl-2-pyridyl)phenyl]-8-[(1,1-dioxo-1 4-thiazinan-2-yl)methyl]-2-(methylamino)pyrido[2,3-d]pyrimidin-7-one], the Ki was determined as 16.1 nM.

As to `CCNc1ncc2cc(-c3ccc(-c4cccc(C)n4)cc3C)c(=O)n(C3COC4(CCNC4)C3)c2n1` (stereo not drawn) [Example I-122, 2-(Ethylamino)-6-[2-methyl-4-(6-methyl-2-pyridyl)phenyl]-8-(1-oxa-7-azaspiro[4.4]nonan-3-yl)pyrido[2,3-d]pyrimidin-7-one], the Ki worked out at 4.5 nM.

With `Cc1cncc(-c2ccc(-c3cc4cnc(NC5COC5)nc4n(C[C@H]4OC[C@H](N)CO4)c3=O)c(Cl)c2)n1` [Example I-164, 8-[(5-amino-1,3-dioxan-2-yl)methyl]-6-[2-chloro-4-(6-methylpyrazin-2-yl)phenyl]-2-(oxetan-3-ylamino)pyrido[2,3-d]pyrimidin-7-one], the Ki was 9.9 nM.

Consider `Cc1cccc(-c2ccc(-c3cc4cnc(NC(C)C)nc4n(CC(=O)N4CCNCC4)c3=O)c(C)c2)n1` [Example I-78, 2-(Isopropylamino)-6-(2-methyl-4-(6-methylpyridin-2-yl)phenyl)-8-(2-oxo-2-(piperazin-1-yl)ethyl)pyrido[2,3-d]pyrimidin-7(8H)-one], for which the inhibition constant (Ki) worked out at 16 nM.

As for `CNc1ncc2cc(-c3ccc(-c4cccc(C)n4)cc3Cl)c(=O)n(CCC3(C#N)CCNC3)c2n1` (stereo not drawn) [Example I-199, 3-[2-[6-[2-chloro-4-(6-methyl-2-pyridyl)phenyl]-2-(methylamino)-7-oxo-pyrido[2,3-d]pyrimidin-8-yl]ethyl]pyrrolidine-3-carbonitrile], the Ki is 2.8 nM.

As to `CNc1ncc2cc(-c3ccc(-c4cncc(C)n4)cc3Cl)c(=O)n(CC(=O)N3CC[C@H](N)C3)c2n1` [Example I-143, 8-[2-[(3S)-3-Aminopyrrolidin-1-yl]-2-oxo-ethyl]-6-[2-chloro-4-(6-methylpyrazin-2-yl)phenyl]-2-(methylamino)pyrido[2,3-d]pyrimidin-7-one], the Ki amounted to 12.5 nM.

As to `CNc1ncc2cc(-c3ccc(-c4cccc(C)n4)cc3C)c(=O)n(CCS(=O)(=O)CCN)c2n1` [Example I-174, 8-[2-(2-aminoethylsulfonyl)ethyl]-2-(methylamino)-6-[2-methyl-4-(6-methyl-2-pyridyl)phenyl]pyrido[2,3-d]pyrimidin-7-one], the Ki was found to be 7.2 nM.

For the molecule `CCNc1ncc2cc(-c3ccc(-c4cccc(C)n4)cc3Cl)c(=O)n(C3COC4(CCNC4)C3)c2n1` (stereo not drawn) [Example I-121, 6-[2-Chloro-4-(6-methyl-2-pyridyl)phenyl]-2-(ethylamino)-8-(1-oxa-7-azaspiro[4.4]nonan-3-yl)pyrido[2,3-d]pyrimidin-7-one], the Ki was determined as 3.7 nM.

Consider `CNc1ncc2cc(-c3ccc(-c4cncc(C)n4)cc3Cl)c(=O)n(CCCCCN)c2n1` [Example I-138, 8-(5-aminopentyl)-6-[2-chloro-4-(6-methylpyrazin-2-yl)phenyl]-2-(methylamino)pyrido[2,3-d]pyrimidin-7-one], for which the Ki stood at 9.6 nM.

In the case of `CNc1ncc2cc(-c3ccc(-c4cncc(C)n4)cc3Cl)c(=O)n(C[C@H]3OC[C@H](N)CO3)c2n1` [Example I-145, 8-[(5-Amino-1,3-dioxan-2-yl)methyl]-6-[2-chloro-4-(6-methylpyrazin-2-yl)phenyl]-2-(methylamino)pyrido[2,3-d]pyrimidin-7-one], the inhibition constant Ki amounted to 8.54 nM.

Turning to `CNc1ncc2cc(-c3ccc(-c4cccc(C)n4)cc3Cl)c(=O)n(CC[C@H]3OC[C@H](N)CO3)c2n1` [Example I-137, 8-[2-(5-amino-1,3-dioxan-2-yl)ethyl]-6-[2-chloro-4-(6-methyl-2-pyridyl)phenyl]-2-(methylamino)pyrido[2,3-d]pyrimidin-7-one], the Ki is 0.92 nM.

With `CNc1ncc2cc(-c3ccc(-c4cncc(C)n4)cc3Cl)c(=O)n(CC[C@H]3OC[C@@H](N)CO3)c2n1` [Example I-172, 8-[2-(5-amino-1,3-dioxan-2-yl)ethyl]-6-[2-chloro-4-(6-methylpyrazin-2-yl)phenyl]-2-(methylamino)pyrido[2,3-d]pyrimidin-7-one], the inhibition constant (Ki) was determined as 11.9 nM.

Take `CNc1ncc2cc(-c3ccc(-c4cccc(C)n4)cc3C)c(=O)n(CCOCCN)c2n1` [Example I-97, 8-[2-(2-Aminoethoxy)ethyl]-2-(methylamino)-6-[2-methyl-4-(6-methyl-2-pyridyl)phenyl]pyrido[2,3-d]pyrimidin-7-one]: the Ki was determined as 3.6 nM.

Consider `CNc1ncc2cc(-c3ccc(-c4cncc(C)n4)cc3Cl)c(=O)n(CCNCCO)c2n1` [Example I-139, 6-[2-chloro-4-(6-methylpyrazin-2-yl)phenyl]-8-[2-(2-hydroxyethylamino)ethyl]-2-(methylamino)pyrido[2,3-d]pyrimidin-7-one], for which the Ki turned out to be 56 nM.

Regarding `CCNc1ncc2cc(-c3ccc(-c4cncc(C)n4)cc3Cl)c(=O)n(C3CCN(C(=O)CN)C3)c2n1` (stereo not drawn) [Example I-28, 8-(1-(2-Aminoacetyl)pyrrolidin-3-yl)-6-(2-chloro-4-(6-methylpyrazin-2-yl)phenyl)-2-(ethylamino)pyrido[2,3-d]pyrimidin-7(8H)-one], the Ki is 25.7 nM.

Turning to `Cc1cccc(-c2ccc(-c3cc4cnc(NC5COC5)nc4n(CC[C@H]4OC[C@@H](N)CO4)c3=O)c(Cl)c2)n1` [Example I-133], the Ki came to 0.9 nM.

In the case of `Cc1cccc(-c2ccc(-c3cc4cnc(NC5COC5)nc4n(CCCCO)c3=O)c(C)c2)n1` [Example I-81, 8-(4-Hydroxybutyl)-6-[2-methyl-4-(6-methyl-2-pyridyl)phenyl]-2-(oxetan-3-ylamino)pyrido[2,3-d]pyrimidin-7-one], the Ki was 6.5 nM.

Turning to `Cc1cncc(-c2ccc(-c3cc4cnc(NC(C)C)nc4n(CCC4CNC(=O)C4)c3=O)c(Cl)c2)n1` (single isomer, unassigned) [Example I-99, 6-[2-Chloro-4-(6-methylpyrazin-2-yl)phenyl]-2-(isopropylamino)-8-[2-(5-oxopyrrolidin-3-yl)ethyl]pyrido[2,3-d]pyrimidin-7-one], the Ki worked out at 19.1 nM.

Take `CNc1ncc2cc(-c3ccc(-c4ncn(C)n4)cc3Cl)c(=O)n(C[C@H]3CNCCO3)c2n1` [Example I-192, 6-[2-chloro-4-(1-methyl-1 2 4-triazol-3-yl)phenyl]-2-(methylamino)-8-[[(2R)-morpholin-2-yl]methyl]pyrido[2,3-d]pyrimidin-7-one]: the Ki came to 4400 nM.

With `CNc1ncc2cc(-c3ccc(-c4cncc(C)n4)cc3Cl)c(=O)n(CCC3CCNC3=O)c2n1` (single isomer, unassigned) [Example I-102, 6-[2-Chloro-4-(6-methylpyrazin-2-yl)phenyl]-2-(methylamino)-8-[2-(2-oxopyrrolidin-3-yl)ethyl]pyrido[2,3-d]pyrimidin-7-one], the inhibition constant (Ki) came out at 38.1 nM.

Consider `CCNc1ncc2cc(-c3ccc(-c4cncc(C)n4)cc3Cl)c(=O)n(CC3(O)CCN(C)CC3)c2n1` [Example I-105, 6-[2-Chloro-4-(6-methylpyrazin-2-yl)phenyl]-2-(ethylamino)-8-[(4-hydroxy-1-methyl-4-piperidyl)methyl]pyrido[2,3-d]pyrimidin-7-one], for which the inhibitory constant (Ki) is 114 nM.

Consider `CNc1ncc2cc(-c3ccc(-c4cncc(C)n4)cc3Cl)c(=O)n(CC[C@@H](O)CO)c2n1` [Example I-80, 6-(2-Chloro-4-(6-methylpyrazin-2-yl)phenyl)-8-(3,4-dihydroxybutyl)-2-(methylamino)pyrido[2,3-d]pyrimidin-7(8H)-one], for which the Ki was 104 nM.

For the molecule `CCNc1ncc2cc(-c3ccc(-c4cccc(C)n4)cc3C)c(=O)n(CCC3CNCCO3)c2n1` (single isomer, unassigned) [Example I-112, 2-(Ethylamino)-6-(2-methyl-4-(6-methylpyridin-2-yl)phenyl)-8-(2-(morpholin-2-yl)ethyl)pyrido[2,3-d]pyrimidin-7(8H)-one], the Ki is 1 nM.

Take `CNc1ncc2cc(-c3ccc(-c4cccc(C)n4)cc3C)c(=O)n(C[C@H]3CNCCO3)c2n1` [Example I-148, 2-(Methylamino)-6-[2-methyl-4-(6-methyl-2-pyridyl)phenyl]-8-[[(2R)-morpholin-2-yl]methyl]pyrido[2,3-d]pyrimidin-7-one]: the Ki was 7.3 nM.

Take `CNc1ncc2cc(-c3ccc(-c4cncc(C)n4)cc3Cl)c(=O)n(CC(=O)N3CCC[C@@H]3CN)c2n1` [Example I-153, 8-[2-[(2R)-2-(Aminomethyl)pyrrolidin-1-yl]-2-oxo-ethyl]-6-[2-chloro-4-(6-methylpyrazin-2-yl)phenyl]-2-(methylamino)pyrido[2,3-d]pyrimidin-7-one]: the inhibition constant (Ki) was found to be 8.5 nM.
